Test results reported in patent US8895585B2, “Nicotinamide derivative or salt thereof” (FUJIFILM Corporation, priority 2010, dated 2014).
Like-named read-outs stand apart in the source and are kept apart here.

Assays:
[1] = test system: THP-1 cells; test: TNFα generation assay; assay type: cell-based, human
In short: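 Secreted TNFα in supernatant quantified by ELISA or AlphaLISA after 7 h culture on human IgG-coated wells (10 μg/ml coating). Cells were IFN-γ-differentiated THP-1 (10 ng/ml, 2 days), exposed to compound for 30 min at room temperature before plating.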

[2] = target: T1, glutathione S-transferase (GST)-fused full-length human Syk protein (Homo sapiens, UniProt P43405); test: Syk enzyme assay; assay type: biochemical
T1 construct: (GST)-fused full-length human Syk protein; GST (glutathione S-transferase); purchased Carna Biosciences
In short: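 GST-tagged full-length human Syk (baculovirus) preincubated with compound 15 min at room temperature (pH 7.0, 10 mM MgCl2), then reacted 40 min with 0.4 μM biotinylated peptide substrate and 27 μM ATP (final). Phosphorylation read by HTRF (615/665 nm) after EDTA stop; IC50 reported.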

[3] = Homo sapiens, THP-1, THP-1 cells, Table 22, read-out: IC50 in TNFα generation assay
[4] = Syk enzyme assay, Test Example 1, read-out: IC50 of Syk-inhibitory activity

Row | SMILES | IC50 [1, 3] | IC50 [2, 4] | IC50 ([1]; THP-1 cells, Table 22, read-out: IC50 in TNFα generation assay) | IC50 ([1]; Homo sapiens, THP-1, 7 h, IFN-γ-differentiated THP-1 cells on human IgG-coated plate, cultured 7 hours, read-out: TNFα generation inhibitory activity (IC50)) | IC50 ([2]; read-out: Syk-inhibitory activity (IC50))
1 | COc1cc(Nc2nc(N[C@H](c3ccc(F)cc3)[C@H](C)N)c(F)cc2C(N)=O)ccn1 [Example 006-556, 6-(((1R,2S)-2-amino-1-(4-fluorophenyl)propyl)amino)-5-fluoro-2-((2-methoxypyridin-4-yl)amino)nicotinamide] | 65 to 130 nM | < 10 nM |  |  | 
2 | COc1ccc(F)c(-c2cc(Nc3nc(N[C@@H](CN)CC(C)C)c(F)cc3C(N)=O)ccn2)c1 [Example 006-321, (R)-6-((1-amino-4-methylpentan-2-yl)amino)-5-fluoro-2-((2-(2-fluoro-5-methoxyphenyl)pyridin-4-yl)amino)nicotinamide] | 130 to 200 nM | < 10 nM |  |  | 
3 | CCc1nn(CC)c2ccc(Nc3nc(N[C@H](C4CC4)[C@H](C)N)c(F)cc3C(N)=O)cc12 [Example 006-579, 6-(((1R,2S)-2-amino-1-cyclopropylpropyl)amino)-2-((1,3-diethyl-1H-indazol-5-yl)amino)-5-fluoronicotinamide] | 65 to 130 nM | < 10 nM |  |  | 
4 | Cc1nn(C2CC2)c2ccc(Nc3nc(N[C@@H]4CCCC[C@@H]4N)c(F)cc3C(N)=O)cc12 [Example 006-477, 6-(((1R,2S)-2-aminocyclohexyl)amino)-2-((1-cyclopropyl-3-methyl-1H-indazol-5-yl)amino)-5-fluoronicotinamide] | 130 to 200 nM | < 10 nM |  |  | 
5 | CCn1nc(C)c2cc(Nc3nc(N[C@H](C4CC4)[C@H](C)N)c(F)cc3C(N)=O)ccc21 [Example 006-583, 6-(((1R,2S)-2-amino-1-cyclopropylpropyl)amino)-2-((1-ethyl-3-methyl-1H-indazol-5-yl)amino)-5-fluoronicotinamide] | < 65 nM | < 10 nM |  |  | 
6 | COc1cc(Nc2nc(N[C@H](CC3CC3)[C@H](C)N)c(F)cc2C(N)=O)ccn1 [Example 006-355, 6-(((2R,3S)-3-amino-1-cyclopropylbutan-2-yl)amino)-5-fluoro-2-((2-methoxypyridin-4-yl)amino)nicotinamide] | 65 to 130 nM | < 10 nM |  |  | 
7 | NC[C@H](Nc1nc(Nc2ccc3ncccc3c2)c(C(N)=O)cc1F)c1ccccc1 [Example 39-4, (R)-6-((2-amino-1-phenylethyl)amino)-5-fluoro-2-((quinolin-6-yl)amino)nicotinamide] | 65 to 130 nM | < 10 nM |  |  | 
8 | CCn1ncc2c(Nc3nc(N[C@H](CC(C)C)[C@H](C)N)c(F)cc3C(N)=O)cccc21 [Example 006-519, 6-(((2S,3R)-2-amino-5-methylhexan-3-yl)amino)-2-((1-ethyl-1H-indazol-4-yl)amino)-5-fluoronicotinamide] | 65 to 130 nM | < 10 nM |  |  | 
9 | CCC[C@@H](Nc1nc(Nc2ccc3ncccc3c2)c(C(N)=O)cc1F)[C@H](C)N [Example 006-207, 6-(((2S,3R)-2-aminohexan-3-yl)amino)-5-fluoro-2-((quinolin-6-yl)amino)nicotinamide] | < 65 nM | < 10 nM |  |  | 
10 | CCn1ncc2cc(Nc3nc(N[C@H](C)[C@H](C)N)c(F)cc3C(N)=O)ccc21 (racemic) [Example 006-184, 6-(((2R,3S)-3-aminobutan-2-yl)amino)-2-((1-ethyl-1H-indazol-5-yl)amino)-5-fluoronicotinamide 6-(((2S,3R)-3-aminobutan-2-yl)amino)-2-((1-ethyl-1H-indazol-5-yl)amino)-5-fluoronicotinamide] | 65 to 130 nM | < 10 nM |  |  | 
11 | COCCn1nc(C)c2ccc(Nc3nc(N[C@H](CC4CC4)[C@H](C)N)c(F)cc3C(N)=O)cc21 [Example 006-487, 6-(((2R,3S)-3-amino-1-cyclopropylbutan-2-yl)amino)-5-fluoro-2-((1-(2-methoxyethyl)-3-methyl-1H-indazol-6-yl)amino)nicotinamide] | 130 to 200 nM | < 10 nM |  |  | 
12 | CCC[C@@H](Nc1nc(Nc2cncc(-c3ccccc3F)c2)c(C(N)=O)cc1F)[C@H](C)N [Example 006-222, 6-(((2S,3R)-2-aminohexan-3-yl)amino)-5-fluoro-2-((5-(2-fluorophenyl)pyridin-3-yl)amino)nicotinamide] | 65 to 130 nM | < 10 nM |  |  | 
13 | CCC[C@@H](Nc1nc(Nc2cnc3cc(OCCOC)ccc3c2)c(C(N)=O)cc1F)[C@H](C)N [Example 006-238, 6-(((2S,3R)-2-aminohexan-3-yl)amino)-5-fluoro-2-((7-(2-methoxyethoxy)quinolin-3-yl)amino)nicotinamide] | < 65 nM | < 10 nM |  |  | 
14 | NC(=O)c1cc(F)c(N[C@@H]2CCCC[C@@H]2N)nc1Nc1cc(N)c2ncccc2c1 (relative stereo) [Example 41-1, 6-(cis-2-aminocyclohexylamino)-2-((8-aminoquinolin-6-yl)amino)-5-fluoronicotinamide] | 130 to 200 nM | < 10 nM |  |  | 
15 | CCC[C@@H](Nc1nc(Nc2cncc(-c3ccccc3)c2)c(C(N)=O)cc1F)[C@H](C)N [Example 006-247, 6-(((2S,3R)-2-aminohexan-3-yl)amino)-5-fluoro-2-((5-phenylpyridin-3-yl)amino)nicotinamide] | 130 to 200 nM | < 10 nM |  |  | 
16 | CCOc1nn(CC)c2ccc(Nc3nc(N[C@@H]4CCCC[C@@H]4N)c(F)cc3C(N)=O)cc12 [Example 006-590, 6-(((1R,2S)-2-aminocyclohexyl)amino)-2-((3-ethoxy-1-ethyl-1H-indazol-5-yl)amino)-5-fluoronicotinamide] | 130 to 200 nM | < 10 nM |  |  | 
17 | NC(=O)c1cc(F)c(NC2CCCCC2N)nc1Nc1ccnc(N2CCOCC2)c1F (stereo not drawn) [Example 002-165] | 65 to 130 nM | 10 to 50 nM |  |  | 
18 | NC(=O)c1cc(F)c(N[C@@H]2CCCC[C@@H]2N)nc1Nc1ccnc(-n2nccn2)c1 [Example 006-146, 2-((2-(2H-1,2,3-triazol-2-yl)pyridin-4-yl)amino)-6-(((1R,2S)-2-aminocyclohexyl)amino)-5-fluoronicotinamide] |  | < 10 nM | < 65 nM |  | 
19 | CC[C@@H](Nc1nc(Nc2cncc(-c3cccc(OC)c3)c2)c(C(N)=O)cc1F)[C@H](C)N [Example 006-276, 6-(((2S,3R)-2-aminopentan-3-yl)amino)-5-fluoro-2-((5-(3-methoxyphenyl)pyridin-3-yl)amino)nicotinamide] | < 65 nM | < 10 nM |  |  | 
20 | Cc1nn(CC(F)F)c2cc(Nc3nc(N[C@H](CC4CC4)[C@H](C)N)c(F)cc3C(N)=O)ccc12 [Example 006-489, 6-(((2R,3S)-3-amino-1-cyclopropylbutan-2-yl)amino)-2-((1-(2,2-difluoroethyl)-3-methyl-1H-indazol-6-yl)amino)-5-fluoronicotinamide] | 130 to 200 nM | < 10 nM |  |  | 
21 | NC(=O)c1cc(F)c(N[C@@H]2CCCC[C@@H]2N)nc1Nc1cncc(-c2ccco2)c1 (relative stereo) [Example 004-058] | 65 to 130 nM | < 10 nM |  |  | 
22 | NC(=O)c1cc(F)c(NC2CCCCC2N)nc1Nc1cncc(-c2ccc3cccnc3c2)c1 (stereo not drawn) [Example 002-189] | 65 to 130 nM | < 10 nM |  |  | 
23 | CC[C@@H](Nc1nc(Nc2cncc(F)c2)c(C(N)=O)cc1F)[C@H](C)N [Example 006-269, 6-(((2S,3R)-2-aminopentan-3-yl)amino)-5-fluoro-2-((5-fluoropyridin-3-yl)amino)nicotinamide] | 65 to 130 nM | 10 to 50 nM |  |  | 
24 | CC[C@@H](Nc1nc(Nc2ccc3nccnc3c2)c(C(N)=O)cc1F)[C@H](C)N [Example 006-260, 6-(((2S,3R)-2-aminopentan-3-yl)amino)-5-fluoro-2-((quinoxalin-6-yl)amino)nicotinamide] | < 65 nM | < 10 nM |  |  | 
25 | CC(C)C[C@@H](Nc1nc(Nc2ccc3ncccc3c2)c(C(N)=O)cc1F)C(N)=O [Example 11, 6-(((2R)-1-amino-4-methyl-1-oxopentan-2-yl)amino)-5-fluoro-2-(quinolin-6-ylamino)nicotinamide] |  |  |  | ≤ 200 nM | ≤ 1000 nM
26 | CCC[C@@H](Nc1nc(Nc2ccc3nc(OCCOC)ccc3c2)c(C(N)=O)cc1F)[C@H](C)N [Example 006-303, 6-(((2S,3R)-2-aminohexan-3-yl)amino)-5-fluoro-2-((2-(2-methoxyethoxy)quinolin-6-yl)amino)nicotinamide] | 130 to 200 nM | < 10 nM |  |  | 
27 | COc1ncc(Nc2nc(NC3CCCCC3N)c(F)cc2C(N)=O)cc1-n1nccn1 (stereo not drawn) [Example 002-155] | 65 to 130 nM | 10 to 50 nM |  |  | 
28 | C[C@H](N)[C@@H](CC1CC1)Nc1nc(Nc2cncc(-c3ccccc3)c2)c(C(N)=O)cc1F [Example 006-351, 6-(((2R,3S)-3-amino-1-cyclopropylbutan-2-yl)amino)-5-fluoro-2-((5-phenylpyridin-3-yl)amino)nicotinamide] | 65 to 130 nM | < 10 nM |  |  | 
29 | CC(C)C[C@H](CN)Nc1nc(Nc2ccnc(-n3ccnn3)c2)c(C(N)=O)cc1F [Example 006-143, (R)-2-((2-(1H-1,2,3-triazol-1-yl)pyridin-4-yl)amino)-6-((1-amino-4-methylpentan-2-yl)amino)-5-fluoronicotinamide] | 130 to 200 nM | < 10 nM |  |  | 
30 | CC[C@@H](Nc1nc(Nc2cccc3c2cnn3C)c(C(N)=O)cc1F)[C@H](C)N [Example 006-268, 6-(((2S,3R)-2-aminopentan-3-yl)amino)-5-fluoro-2-((1-methyl-1H-indazol-4-yl)amino)nicotinamide] | < 65 nM | < 10 nM |  |  | 
